Laboratory results from patent EP4273147A1, “SUBSTITUTED SPIROLACTAMS, SALTS THEREOF AND THEIR USE AS HERBICIDALLY ACTIVE SUBSTANCES” (Bayer Aktiengesellschaft, priority 2022, dated 2023).

How the values were obtained:
LOLRI [1] = experiment: Herbicidal pre-emergence action (Table A3); assay type: in vivo, Lolium rigidum; details: visual grading after ca. 3 weeks
Method in brief: (§1)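 Weed seeds are sown into sandy loam in pots and covered with soil, with two species per pot, one monocot and one dicot.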

ECHCG [2] = experiment: Herbicidal pre-emergence action (Table A2); assay type: in vivo, Echinochloa crus-galli; details: visual grading after ca. 3 weeks
Method in brief: as §1

ALOMY [3] = experiment: Herbicidal pre-emergence action (Table A9); assay type: in vivo, Alopecurus myosuroides; details: application rate 1280 g/ha; visual grading after ca. 3 weeks
Method in brief: as §1

ALOMY [4] = experiment: Herbicidal post-emergence action (Table B2); assay type: in vivo, Alopecurus myosuroides; details: application rate 1280 g/ha; rated visually after about 3 weeks
Procedure: (§2) Seeds of mono- and dicotyledonous weed plants were placed in plastic pots in sandy loam soil (doubly sown with in each case one species of mono- or dicotyledonous weed plants per pot), covered with soil and cultivated in a greenhouse under controlled growth conditions. 2 to 3 weeks after sowing, the test plants were treated at the one-leaf stage. […] After the test plants had been kept in the greenhouse under optimum growth conditions for about 3 weeks, the activity of the preparations was rated visually in comparison to untreated controls. For example, 100% activity = the plants have died, 0% activity = like control plants.

ECHCG [5] = experiment: Herbicidal post-emergence action (Table B3); assay type: in vivo, Echinochloa crus-galli; details: rated visually after about 3 weeks
Method in brief: (§3)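 Plants grown from seed in a greenhouse are treated at the one-leaf stage, two to three weeks after sowing. They then stay under optimum growth conditions for about three weeks before herbicidal activity is scored visually on a 0–100% scale against untreated controls.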

VERPE [6] = experiment: Herbicidal post-emergence action (Table B10); assay type: in vivo, Veronica persica
Method in brief: as §3

MATIN [7] = experiment: Herbicidal pre-emergence action (Table A4); assay type: in vivo, Matricaria inodora; details: visual grading after ca. 3 weeks
Method in brief: as §1

POAAN [8] = experiment: Herbicidal pre-emergence action (Table A7); assay type: in vivo, Poa annua
Method in brief: as §1

SETVI [9] = experiment: Herbicidal pre-emergence action (Table A5); assay type: in vivo, Setaria viridis; details: application rate 320 g/ha; visual grading after ca. 3 weeks
Method in brief: as §1

SETVI [10] = experiment: Herbicidal post-emergence action (Table B8); assay type: in vivo, Setaria viridis
Method in brief: as §3

DIGSA [11] = experiment: Herbicidal pre-emergence action (Table A12); assay type: in vivo, Digitaria sanguinalis; details: application rate 320 g/ha; visual grading after ca. 3 weeks
Method in brief: as §1

ZEAMX [12] = experiment: Pre-emergence effects on crop plants (Table D1); assay type: in vivo, Zea mays; details: crop plant; application rate 320 g/ha; visual grading after ca. 3 weeks
Excerpt: Seeds of mono- and dicotyledonous weed plants and crop plants were sown, in plastic or organic planting pots, in sandy loam and covered with soil. The compounds according to the invention, formulated in the form of wettable powders (WP) or as emulsifiable concentrates (EC), were applied to the surface of the covering soil as aqueous suspension or emulsion, with the addition of 0.5% of an additive, at an application rate of 600 1 of water/ha (converted).
Following treatment, the pots were placed in a greenhouse and kept under optimum growth conditions for the test plants.

KCHSC = experiment: Herbicidal pre-emergence action (Table A10); assay type: in vivo, Kochia scoparia; details: application rate 320 g/ha; visual grading after ca. 3 weeks
Method in brief: as §1

VIOTR [13] = experiment: Herbicidal post-emergence action, section E (Table E10); assay type: in vivo, Viola tricolor; details: application rate 320 g/ha; assessed visually after ca. 3 weeks
Excerpt: (§4) 2 to 3 weeks after sowing, the test plants were sprayed in the single-leaf stage.

VERPE [14] = experiment: Herbicidal pre-emergence action, section C (Table C11); assay type: in vivo, Veronica persica; details: application rate 320 g/ha; visual grading after ca. 3 weeks
Excerpt: (§5) Seeds of mono- and dicotyledonous weed plants and crop plants were sown, in plastic or organic planting pots, in sandy loam and covered with soil. The compounds according to the invention, formulated in the form of wettable powders (WP) or as emulsifiable concentrates (EC), were applied to the surface of the covering soil as aqueous suspension or emulsion, with the addition of 0.5% of an additive, at an application rate of 600 1 of water/ha (converted). Following treatment, the pots were placed in a greenhouse and kept under optimum growth conditions for the test plants.

ZEAMX [15] = experiment: Post-emergence effects on crop plants (Table F1); assay type: in vivo, Zea mays; details: application rate 320 g/ha, crop plant ZEAMX
Excerpt: as §4

ABUTH [16] = experiment: Herbicidal pre-emergence action, section C (Table C1); assay type: in vivo, Abutilon theophrasti; details: application rate 320 g/ha; visual grading after ca. 3 weeks
Excerpt: as §5

VERPE [17] = experiment: Herbicidal pre-emergence action (Table A11); assay type: in vivo, Veronica persica; details: application rate 1280 g/ha; visual grading after ca. 3 weeks
Method in brief: as §1

ABUTH [18] = experiment: Herbicidal pre-emergence action (Table A1); assay type: in vivo, Abutilon theophrasti; details: application rate 1280 g/ha; visual grading after ca. 3 weeks vs untreated controls (100% = plants have died off, 0% = as control plants)
Method in brief: as §1

SETVI [19] = experiment: Herbicidal pre-emergence action, section C (Table C10); assay type: in vivo, Setaria viridis; details: application rate 80 g/ha; visual grading after ca. 3 weeks
ORYZA [20] = experiment: Pre-emergence effects on crop plants (Table D3); details: crop plant; application rate 80 g/ha; visual grading after ca. 3 weeks
LOLRI [21] = experiment: Herbicidal post-emergence action (Table B5); assay type: in vivo, Lolium rigidum; details: application rate 1280 g/ha; rated visually after about 3 weeks
Procedure: as §2

DIGSA [22] = experiment: Herbicidal pre-emergence action, section C (Table C5); assay type: in vivo, Digitaria sanguinalis; details: application rate 80 g/ha; visual grading after ca. 3 weeks
ORYZA [23] = experiment: Post-emergence effects on crop plants (Table F3); assay type: in vivo, Oryza sativa; details: application rate 320 g/ha, crop plant ORYZA
Excerpt: as §4

AMARE = experiment: Herbicidal pre-emergence action (Table A8); assay type: in vivo, Amaranthus retroflexus; details: application rate 1280 g/ha; visual grading after ca. 3 weeks vs untreated controls (100% = plants have died off, 0% = as control plants)
Method in brief: as §1

ALOMY [24] = experiment: Herbicidal pre-emergence action, section C (Table C2); assay type: in vivo, Alopecurus myosuroides; details: application rate 320 g/ha; visual grading after ca. 3 weeks
VIOTR [25] = experiment: Herbicidal pre-emergence action, section C (Table C12); assay type: in vivo, Viola tricolor; details: application rate 80 g/ha; visual grading after ca. 3 weeks
BRSNW [26] = experiment: Pre-emergence effects on crop plants (Table D5); assay type: in vivo, Brassica napus; details: crop plant; application rate 80 g/ha; visual grading after ca. 3 weeks
LOLRI [27] = experiment: Herbicidal pre-emergence action, section C (Table C7); assay type: in vivo, Lolium rigidum; details: application rate 320 g/ha; visual grading after ca. 3 weeks
ECHCG [28] = experiment: Herbicidal post-emergence action, section E (Table E5); assay type: in vivo, Echinochloa crus-galli; details: application rate 320 g/ha; assessed visually after ca. 3 weeks
Excerpt: as §4

ECHCG [29] = experiment: Herbicidal pre-emergence action, section C (Table C6); assay type: in vivo, Echinochloa crus-galli; details: application rate 80 g/ha; visual grading after ca. 3 weeks
ALOMY [30] = experiment: Herbicidal post-emergence action, section E (Table E2); assay type: in vivo, Alopecurus myosuroides; details: application rate 320 g/ha; assessed visually after ca. 3 weeks
Excerpt: as §4

MATIN [31] = experiment: Herbicidal post-emergence action (Table B6); assay type: in vivo, Matricaria inodora; details: application rate 1280 g/ha; rated visually after about 3 weeks
Method in brief: as §3

GLXMA = experiment: Pre-emergence effects on crop plants (Table D4); assay type: in vivo, Glycine max; details: crop plant; application rate 320 g/ha; visual grading after ca. 3 weeks
TRZAS [32] = experiment: Pre-emergence effects on crop plants (Table D2); assay type: in vivo, Triticum aestivum; details: crop plant; application rate 80 g/ha; visual grading after ca. 3 weeks
STEME = experiment: Herbicidal pre-emergence action (Table A6); assay type: in vivo, Stellaria media; details: application rate 320 g/ha; visual grading after ca. 3 weeks
Method in brief: as §1

BRSNW [33] = experiment: Post-emergence effects on crop plants (Table F5); assay type: in vivo, Brassica napus; details: application rate 80 g/ha, crop plant BRSNW
Excerpt: as §4

MATIN [34] = experiment: Herbicidal pre-emergence action, section C (Table C8); assay type: in vivo, Matricaria inodora; details: application rate 320 g/ha; visual grading after ca. 3 weeks
POLCO = experiment: Herbicidal pre-emergence action, section C (Table C9); assay type: in vivo, Polygonum convolvulus; details: application rate 320 g/ha; visual grading after ca. 3 weeks
TRZAS [35] = experiment: Post-emergence effects on crop plants (Table F2); assay type: in vivo, Triticum aestivum; details: application rate 320 g/ha, crop plant TRZAS
Excerpt: as §4

POAAN [36] = experiment: Herbicidal post-emergence action (Table B7); assay type: in vivo, Poa annua; details: application rate 1280 g/ha
Method in brief: as §3

[37] = application rate 320 g/ha, visual grading after ca. 3 weeks

With O=C1N(Cc2ccccc2Cl)CCCC12CCCN(Cc1cccc(F)c1F)C2=O (racemic) [I-018] the “pre-emergence activity against LOLRI” value (LOLRI [1]; application rate 320 g/ha) was 100%, the “pre-emergence activity against ECHCG” value (ECHCG [2]; application rate 320 g/ha) was 100% and the “pre-emergence activity against ALOMY” value (ALOMY [3]) was 90%. The “post-emergence activity against ALOMY” value (ALOMY [4]) was 90%, the “post-emergence activity against ECHCG” value (ECHCG [5]; application rate 320 g/ha) was 90% and the “post-emergence activity against VERPE” value (VERPE [6]; application rate 320 g/ha) was 90%. For the same compound, the “pre-emergence activity against MATIN” value (MATIN [7]; application rate 1280 g/ha) was 90%, the “pre-emergence activity against POAAN” value (POAAN [8]; pre-emergence, 1290 g/ha, 504 h) was 100% and the “pre-emergence activity against SETVI” value (SETVI [9]) was 90%. For the same compound, the “post-emergence activity against SETVI” value (SETVI [10]; application rate 320 g/ha) was 90%.

For O=C1N(Cc2ccccc2F)CCC12CCCN(Cc1c(F)cccc1F)C2=O (racemic) [I-024], the “pre-emergence activity against DIGSA” value (DIGSA [11]) was 100%, the “pre-emergence activity against ZEAMX” value (ZEAMX [12]) was 0% and the “pre-emergence activity against LOLRI” value (LOLRI [1]; application rate 320 g/ha) was 100%. The “pre-emergence activity against KCHSC” value (KCHSC) was 90%, the “post-emergence activity against VIOTR” value (VIOTR [13]) was 80% and the “pre-emergence activity against ECHCG” value (ECHCG [2]; application rate 1280 g/ha) was 100%. For the same compound, the “pre-emergence activity against VERPE” value (VERPE [14]) was 90%, the “post-emergence activity against ZEAMX” value (ZEAMX [15]) was 0% and the “pre-emergence activity against ABUTH” value (ABUTH [16]) was 90%. For the same compound, the “pre-emergence activity against VERPE” value (VERPE [17]) was 90%, the “pre-emergence activity against ABUTH” value (ABUTH [18]) was 90% and the “pre-emergence activity against SETVI” value (SETVI [19]) was 100%. For the same compound, the “pre-emergence activity against ALOMY” value (ALOMY [3]) was 90%, the “pre-emergence activity against ORYZA” value (ORYZA [20]) was 0% and the “post-emergence activity against LOLRI” value (LOLRI [21]) was 90%. For the same compound, the “pre-emergence activity against DIGSA” value (DIGSA [22]) was 80%, the “post-emergence activity against ORYZA” value (ORYZA [23]) was 0% and the “pre-emergence activity against AMARE” value (AMARE) was 90%. The “pre-emergence activity against ALOMY” value (ALOMY [24]) was 90%, the “pre-emergence activity against VIOTR” value (VIOTR [25]) was 90% and the “post-emergence activity against ECHCG” value (ECHCG [5]; application rate 1280 g/ha) was 90%. The “pre-emergence activity against BRSNW” value (BRSNW [26]) was 20%, the “pre-emergence activity against LOLRI” value (LOLRI [27]) was 90% and the “post-emergence activity against ECHCG” value (ECHCG [28]) was 90%. The “pre-emergence activity against ECHCG” value (ECHCG [29]) was 100%, the “post-emergence activity against ALOMY” value (ALOMY [30]) was 80% and the “pre-emergence activity against MATIN” value (MATIN [7]; application rate 320 g/ha) was 90%. The “post-emergence activity against MATIN” value (MATIN [31]) was 90%, the “pre-emergence activity against POAAN” value (POAAN [8]; [37]) was 100% and the “pre-emergence activity against GLXMA” value (GLXMA) was 0%. The “pre-emergence activity against TRZAS” value (TRZAS [32]) was 0%, the “pre-emergence activity against STEME” value (STEME) was 90% and the “post-emergence activity against BRSNW” value (BRSNW [33]) was 0%. The “pre-emergence activity against MATIN” value (MATIN [34]) was 90%, the “pre-emergence activity against SETVI” value (SETVI [9]) was 100% and the “pre-emergence activity against POLCO” value (POLCO) was 90%. The “post-emergence activity against SETVI” value (SETVI [10]; application rate 1280 g/ha) was 90% and the “post-emergence activity against TRZAS” value (TRZAS [35]) was 0%.

In the case of O=C1N(Cc2ccccc2F)CCCC12CCCN(Cc1ccccc1Br)C2=O (racemic) [I-042], the “pre-emergence activity against LOLRI” value (LOLRI [1]; application rate 1280 g/ha) is reported as 100%, the “pre-emergence activity against ECHCG” value (ECHCG [2]; application rate 320 g/ha) is reported as 100% and the “post-emergence activity against POAAN” value (POAAN [36]) is reported as 90%. The “post-emergence activity against ALOMY” value (ALOMY [4]) was 90%, the “post-emergence activity against VERPE” value (VERPE [6]; application rate 1280 g/ha) was 90% and the “pre-emergence activity against POAAN” value (POAAN [8]; [37]) was 100%. The “pre-emergence activity against SETVI” value (SETVI [9]) was 90%.
